In ChEMBL document CHEMBL5230136, “A review: Biologically active 3,4-heterocycle-fused coumarins” (Eur J Med Chem, 2021):
Converted amounts (≈) assume the structure as drawn.

Experiments:
RAW264.7 = test: Anti-inflammatory activity against mouse RAW264.7 cells assessed as inhibition of LPS-induced NO production at 50 ug/ml relative to control; type: functional; set-up: scale not given: the % may be the effect or the level left; details: dose 50 µg/ml
Candida albicans [1] = test: […] activity against Candida albicans assessed as zone of inhibition at 20 mg/ml; type: functional; details: read-out: IZ
Salmonella enterica = test: Antibacterial activity against Salmonella enterica assessed as bacterial growth inhibition by broth dilution method; type: functional
HCT-15 = test: Anticancer activity against human HCT-15 cells assessed as cell growth inhibition; type: functional, cell-based
[2] = Antioxidant activity assessed as DPPH radical scavenging activity; type: functional
HepG2 = test: Anticancer activity against human HepG2 cells by MTT assay; type: functional, cell-based
[3] = Antioxidant activity assessed as FRAP radical activity by FRAP assay; type: functional
Escherichia coli [4] = test: Antibacterial activity against Escherichia coli assessed as bacterial growth inhibition by broth dilution method; type: functional
Staphylococcus aureus [5] = test: Antibacterial activity against Staphylococcus aureus ATCC 29213 assessed as reduction in bacterial growth; type: functional
Escherichia coli [6] = test: Antibacterial activity against Escherichia coli assessed as bacterial growth inhibition; type: functional
[7] = molecular target: T1, D(4) dopamine receptor (Homo sapiens) (UniProt P21917); test: Inhibition of human D4 receptor
T1 sequence (whole entry): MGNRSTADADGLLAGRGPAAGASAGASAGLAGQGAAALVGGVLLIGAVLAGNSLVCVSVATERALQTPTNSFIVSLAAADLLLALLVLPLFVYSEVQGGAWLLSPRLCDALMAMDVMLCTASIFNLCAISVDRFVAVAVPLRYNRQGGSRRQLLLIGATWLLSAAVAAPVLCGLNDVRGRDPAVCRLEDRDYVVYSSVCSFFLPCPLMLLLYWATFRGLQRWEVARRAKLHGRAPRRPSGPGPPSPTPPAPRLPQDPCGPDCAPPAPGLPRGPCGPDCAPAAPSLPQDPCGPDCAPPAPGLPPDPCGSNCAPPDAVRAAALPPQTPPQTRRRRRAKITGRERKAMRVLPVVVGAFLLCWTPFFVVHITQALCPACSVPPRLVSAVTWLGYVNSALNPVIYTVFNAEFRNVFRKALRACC

[8] = system: Staphylococcus epidermidis; test: Antibacterial activity against Staphylococcus epidermidis assessed as reduction in bacterial growth; type: functional
HCT-116 [9] = test: Cytotoxicity against human HCT-116 cells assessed as reversal of multi drug resistance at 1 uM; type: functional, cell-based
L1210 [10] = test: Cytotoxicity against […] cells assessed as reversal of multi drug resistance at 1 uM; type: functional, cell-based; details: Mus musculus
L1210 [11] = test: Cytotoxicity against mouse L1210 cells assessed as reduction in cell viability; type: functional, cell-based
HCT-116/VM46 = test: cells; details: Homo sapiens
[12] = Inhibition of HIV-1 integrase; set-up: species or system Human immunodeficiency virus 1
[13] = molecular target: Dual specificity tyrosine-phosphorylation-regulated kinase 1A (Homo sapiens, UniProt Q13627); test: Inhibition of DYRK1A (unknown origin)
MCF7 [14] = test: Inhibition of CKII in human MCF7 cells at 50 uM assessed as inhibition; type: cell-based
HCT-116 [15] = test: Inhibition of CKII in human HCT-116 cells at 50 uM assessed as inhibition; type: cell-based
[16] = Cytotoxicity against human HCC-S102 cells assessed as reduction in cell viability; type: functional, cell-based
Botrytis cinerea = test: Antifungal activity against Botrytis cinerea; type: functional, organism-based
Colletotrichum camelliae = test: Antifungal activity against Colletotrichum camelliae; type: functional, organism-based
Rhizoctonia solani = test: Antifungal activity against Rhizoctonia solani at 150 uM; type: functional, organism-based
MCF7 [17] = test: Antiproliferative activity against human MCF7 cells assessed as inhibition of cell proliferation measured after 96 hrs by SRB assay; type: functional, cell-based; details: MCF7, 96 h
Staphylococcus aureus [18] = test: Antibacterial activity against Staphylococcus aureus assessed as zone of inhibition at 20 mg/ml; type: functional; details: read-out: IZ
Bacillus cereus = test: Antibacterial activity against Bacillus cereus assessed as zone of inhibition at 20 mg/ml; type: functional; details: read-out: IZ
Escherichia coli [19] = test: Antibacterial activity against Escherichia coli assessed as zone of inhibition at 20 mg/ml; type: functional; details: read-out: IZ
Pseudomonas aeruginosa = test: Antibacterial activity against Pseudomonas aeruginosa assessed as zone of inhibition at 20 mg/ml; type: functional; details: read-out: IZ
Serratia marcescens = test: Antibacterial activity against Serratia marcescens assessed as zone of inhibition at 20 mg/ml; type: functional; details: read-out: IZ
Micrococcus luteus = test: Antibacterial activity against Micrococcus luteus assessed as zone of inhibition at 20 mg/ml; type: functional; details: read-out: IZ
Candida albicans [20] = test: Antifungal activity against Candida albicans assessed as zone of inhibition at 20 mg/ml; type: functional; details: read-out: IZ
Trichophyton rubrum = test: Antifungal activity against Trichophyton rubrum assessed as zone of inhibition at 20 mg/ml; type: functional; details: read-out: IZ
Aspergillus flavus = test: Antifungal activity against Aspergillus flavus assessed as zone of inhibition at 20 mg/ml; type: functional; details: read-out: IZ
Fusarium oxysporum = test: Antifungal activity against Fusarium oxysporum assessed as zone of inhibition at 20 mg/ml; type: functional; details: read-out: IZ
Scopulariopsis = test: Antifungal activity against Scopulariopsis assessed as zone of inhibition at 20 mg/ml; type: functional; details: read-out: IZ
Geotrichum candidum [21] = test: Antifungal activity against Geotrichum candidum assessed as zone of inhibition at 20 mg/ml; type: functional; details: read-out: IZ
Geotrichum candidum [22] = test: Antimicrobial activity against Geotrichum candidum assessed as zone of inhibition at 50 uM; type: functional; details: read-out: IZ

Compound: O=C(O)Cc1ccccc1Nc1c(Cl)cccc1Cl [DICLOFENAC]
- Activity (RAW264.7): 62%

Compound: CCOC(=O)c1nnc2c3c(=O)oc4ccccc4c3nn2c1N
- zone of inhibition at 20000 µg/mL (Candida albicans [1]): 10 mm

Compound: CCc1c(C)c(=O)oc2c1c(=O)oc1ccccc12
- MIC (Salmonella enterica): 50 µM (≈ 12.8 µg/mL)

Compound: CC(=O)/C=C1\c2c(c3ccccc3oc2=O)OC1(c1ccccc1)N(C)C (stereo not drawn)
- IC50 (HCT-15): 8 µM

Compound: O=c1oc2ccccc2c2c1C(c1ccc(Br)cc1O)SCCN2 (stereo in doubt; 203c)
- IC50 [2]: 290 µM
- IC50 (HepG2): 290 µM
- IC50 [3]: 0.186 µM

Compound: CC(=O)c1c(O)c2c(cc(O)c3c(=O)oc4c5cccc(C)c5oc(=O)c4c32)oc1=O
- MIC (Escherichia coli [4]): 100 µg/mL (≈ 238 µM)
- MIC (Staphylococcus aureus [5]): 150 µM (≈ 63 µg/mL)
- MIC (Escherichia coli [6]): 100 µM (≈ 42 µg/mL)

Compound: COc1ccc2c(c1)OC(=O)C1CN(CCN3CC4CCC(CC4)C3)CCC21 (stereo not drawn)
- ID50 [7]: 0.035 mg/kg

Compound: COc1cccc2c1OC(=O)C1C(C)=Nc3[nH]n(-c4cc(Cl)ccc4Cl)c(=O)c3C21 (stereo not drawn)
- MIC [8]: 25 µM (≈ 11.1 µg/mL)

Compound: O=c1oc2cc(O)c(O)cc2c2c(-c3ccc(O)c(O)c3)cn(CCc3ccc(O)c(O)c3)c12
- IC50 (HCT-116 [9]): 12 µM
- IC50 (L1210 [10]): 10 µM
- IC50 (L1210 [11]): 10 µM
- IC50 (HCT-116/VM46): 60 µM

Compound: COc1ccc(-c2c3c4cc(OC)c(OS(=O)(=O)O)cc4oc(=O)c3n3ccc4cc(OC)c(OC)cc4c23)cc1O
- IC50 [12]: 8 µM

Compound: O=c1oc2cc(O)ccc2c2c1[nH]c1ccc(O)cc12
- IC50 [13]: 0.0003 µM

Compound: O=c1oc2ccc3ccccc3c2cc1-c1ccc2c(=O)oc3ccc(Cl)cc3c2n1
- MIC (Staphylococcus aureus [5]): 62.5 µM (≈ 26.6 µg/mL)

Compound: O=c1oc2cc(O)ccc2c2oc3cc(O)ccc3c12
- inhibition (MCF7 [14]): 50%
- inhibition (HCT-116 [15]): 30%

Compound: COc1cc2c(cc1OC)C1CCN(CCN3CC4CCC(CC4)C3)CC1C(=O)O2 (stereo not drawn)
- ID50 [7]: 0.113 mg/kg

Compound: COc1cc(-c2c3c4cc(OC)c(O)cc4oc(=O)c3n3ccc4cc(O)c(OC)cc4c23)ccc1O [LAMELLARIN D]
- IC50 [16]: 3.2 µM

Compound: COc1ccc2ccc(=O)oc2c1CC=C(C)C [OSTHOLE]
- EC50 (Botrytis cinerea): 6.45 µg/mL (≈ 26.4 µM)
- EC50 (Colletotrichum camelliae): 16.8 µg/mL (≈ 68.9 µM)
- EC50 (Rhizoctonia solani): 6.88 µg/mL (≈ 28.2 µM)

Compound: O=c1oc2ccccc2c2[se]c(CN3CCOCC3)c(Nc3ccncc3)c12
- IC50 (MCF7 [17]): 18 µM

Compound: COc1ccc2c(c1)oc(=O)c1c(C)coc12
- EC50 (Rhizoctonia solani): 3.57 µg/mL (≈ 15.5 µM)

Compound: GENTAMICIN
- MIC (Escherichia coli [4]): 5 µg/mL

Compound: CCOC(=O)c1sc2c(c1NC(=O)CNc1ccc(S(N)(=O)=O)cc1)c(=O)oc1ccccc12
- zone of inhibition at 20000 µg/mL (Staphylococcus aureus [18]): 9 mm
- zone of inhibition at 20000 µg/mL (Bacillus cereus): 0 mm
- zone of inhibition at 20000 µg/mL (Escherichia coli [19]): 9 mm
- zone of inhibition at 20000 µg/mL (Pseudomonas aeruginosa): 0 mm
- zone of inhibition at 20000 µg/mL (Serratia marcescens): 0 mm
- zone of inhibition at 20000 µg/mL (Micrococcus luteus): 0 mm
- zone of inhibition at 20000 µg/mL (Candida albicans [20]): 0 mm
- zone of inhibition at 20000 µg/mL (Trichophyton rubrum): 0 mm
- zone of inhibition at 20000 µg/mL (Aspergillus flavus): 0 mm
- zone of inhibition at 20000 µg/mL (Fusarium oxysporum): 0 mm
- zone of inhibition at 20000 µg/mL (Scopulariopsis): 0 mm
- zone of inhibition at 20000 µg/mL (Geotrichum candidum [21]): 10 mm
- zone of inhibition at 50 µM (Geotrichum candidum [22]): 10 mm

Compound: CCOc1ccc2c(c1)oc(=O)c1c(C)coc12
- EC50 (Rhizoctonia solani): 8.87 µg/mL (≈ 36.3 µM)
